Some results are limits rather than exact numbers.

Series [1] concerns the target Phosphatidylinositol 4,5-bisphosphate 3-kinase catalytic subunit alpha isoform (Homo sapiens, UniProt P42336). Briefly: Inhibition of human PI3Kalpha using phosphatidyl inositol as substrate after 3 hrs by Kinase-Glo Plus reagent-based luminescence assay. Background: Kinase-Glo reads ATP consumption through a luciferase reaction.
The subject of series [2] is B-cell. Description: Antiproliferative activity against anti-IgM antibody-stimulated BALB/c mouse B cells after 2 days by Alamar Blue reagent-based assay. The conditions noted are these: 48 h. In general terms: The colour change of resazurin is a common sign of viable cells or microbes.
Series [3] can be described thus: Intrinsic clearance in CD1 mouse liver microsomes at 0.2 uM up to 45 mins in presence of NADPH by LC-MS/MS analysis. The note with it: read-out: CLH. It is filed as ADME, Microsome. On the technique in general: Microsomes from liver hold many membrane-bound enzymes, among them those of drug oxidation.
Series [4] concerns the target Phosphatidylinositol 4,5-bisphosphate 3-kinase catalytic subunit beta isoform (Homo sapiens, UniProt P42338). Description: Inhibition of recombinant human PI3Kbeta using PIP2 as substrate after 35 to 40 mins by HTRF assay.
For series [5], the target named is T1, Phosphatidylinositol 4,5-bisphosphate 3-kinase catalytic subunit delta isoform (Homo sapiens, UniProt O00329).
T1 sequence (O00329 whole entry): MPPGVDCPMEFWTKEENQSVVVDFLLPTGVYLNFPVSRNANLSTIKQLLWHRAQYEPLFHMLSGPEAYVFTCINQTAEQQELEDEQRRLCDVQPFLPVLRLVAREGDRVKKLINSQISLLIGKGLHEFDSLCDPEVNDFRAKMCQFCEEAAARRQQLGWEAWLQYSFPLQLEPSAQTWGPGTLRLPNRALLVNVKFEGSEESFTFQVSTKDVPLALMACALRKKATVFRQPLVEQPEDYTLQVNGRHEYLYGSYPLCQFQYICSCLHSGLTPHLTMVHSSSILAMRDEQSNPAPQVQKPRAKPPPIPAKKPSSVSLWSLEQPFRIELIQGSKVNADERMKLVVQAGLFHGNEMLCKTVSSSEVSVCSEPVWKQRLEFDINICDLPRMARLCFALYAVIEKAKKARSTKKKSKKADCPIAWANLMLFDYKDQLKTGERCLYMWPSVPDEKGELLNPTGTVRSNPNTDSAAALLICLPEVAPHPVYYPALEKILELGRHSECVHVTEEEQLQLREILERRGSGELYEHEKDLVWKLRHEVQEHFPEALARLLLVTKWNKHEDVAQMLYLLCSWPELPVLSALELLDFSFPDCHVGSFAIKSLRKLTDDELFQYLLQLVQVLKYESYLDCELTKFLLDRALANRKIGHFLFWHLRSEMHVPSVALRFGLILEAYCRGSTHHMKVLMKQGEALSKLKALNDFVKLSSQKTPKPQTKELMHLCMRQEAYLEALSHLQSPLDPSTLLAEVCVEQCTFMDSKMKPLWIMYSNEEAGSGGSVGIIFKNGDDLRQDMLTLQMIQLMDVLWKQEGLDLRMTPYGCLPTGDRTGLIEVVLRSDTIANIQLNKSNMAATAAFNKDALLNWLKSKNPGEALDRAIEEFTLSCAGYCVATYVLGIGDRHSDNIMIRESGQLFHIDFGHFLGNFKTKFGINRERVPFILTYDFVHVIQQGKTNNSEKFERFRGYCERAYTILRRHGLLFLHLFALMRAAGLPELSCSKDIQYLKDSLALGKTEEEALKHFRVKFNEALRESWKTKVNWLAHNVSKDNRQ
Description: Inhibition of recombinant human PI3Kdelta using PIP2 as substrate after 35 to 40 mins by HTRF assay.

Series [6] deals with Phosphatidylinositol 4,5-bisphosphate 3-kinase catalytic subunit gamma isoform (Homo sapiens, UniProt P48736). Description: Inhibition of recombinant human PI3Kgamma using PIP2 as substrate after 35 to 40 mins by HTRF assay.
Sequence of Phosphatidylinositol 4,5-bisphosphate 3-kinase catalytic subunit gamma isoform (P48736 whole entry, canonical isoform): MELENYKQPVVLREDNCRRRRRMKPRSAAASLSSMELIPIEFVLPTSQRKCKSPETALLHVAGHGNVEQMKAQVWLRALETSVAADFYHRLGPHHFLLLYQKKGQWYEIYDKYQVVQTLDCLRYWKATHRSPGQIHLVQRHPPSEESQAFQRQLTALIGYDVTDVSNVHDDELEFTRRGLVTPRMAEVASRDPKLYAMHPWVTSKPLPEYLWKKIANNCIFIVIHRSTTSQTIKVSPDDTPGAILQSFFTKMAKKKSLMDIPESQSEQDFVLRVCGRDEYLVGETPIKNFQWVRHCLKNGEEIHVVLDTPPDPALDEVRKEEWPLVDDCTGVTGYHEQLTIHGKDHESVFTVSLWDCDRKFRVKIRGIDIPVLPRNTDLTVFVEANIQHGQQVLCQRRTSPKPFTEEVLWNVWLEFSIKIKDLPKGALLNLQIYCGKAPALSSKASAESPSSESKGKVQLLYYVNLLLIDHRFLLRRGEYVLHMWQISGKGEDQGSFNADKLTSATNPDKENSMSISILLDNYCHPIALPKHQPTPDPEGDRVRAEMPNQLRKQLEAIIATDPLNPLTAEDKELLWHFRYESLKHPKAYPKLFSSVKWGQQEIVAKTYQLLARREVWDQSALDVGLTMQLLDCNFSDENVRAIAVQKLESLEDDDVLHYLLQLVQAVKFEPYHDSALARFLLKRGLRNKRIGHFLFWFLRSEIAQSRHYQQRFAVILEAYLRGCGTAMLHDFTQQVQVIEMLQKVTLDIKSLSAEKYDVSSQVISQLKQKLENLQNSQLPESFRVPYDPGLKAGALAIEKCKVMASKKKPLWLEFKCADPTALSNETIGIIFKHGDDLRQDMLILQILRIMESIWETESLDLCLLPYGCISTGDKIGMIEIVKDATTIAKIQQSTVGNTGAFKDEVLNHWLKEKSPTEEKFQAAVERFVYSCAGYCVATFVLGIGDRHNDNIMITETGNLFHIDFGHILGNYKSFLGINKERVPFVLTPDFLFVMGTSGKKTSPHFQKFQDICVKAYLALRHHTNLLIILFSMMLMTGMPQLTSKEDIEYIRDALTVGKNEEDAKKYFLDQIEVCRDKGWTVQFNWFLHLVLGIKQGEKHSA
A short description of series [7]: Inhibition of PI3K in rat Rat-1 cells assessed as decrease in AKT 1/2 phosphorylation at ser473 residues after 1 hr by AlphaScreen assay. Format: cell-based.
Series [8] can be described thus: Half life in BALB/c mouse at 1 mg/kg, iv or 3 mg/kg, po by LC-MS/MS analysis. The conditions noted are these: in vivo. It is filed as ADME, organism-based.
For series [9], the target named is T2, Phosphatidylinositol 4,5-bisphosphate 3-kinase catalytic subunit delta isoform (Homo sapiens) (UniProt O00329).
T2 sequence (whole entry): T1 sequence (O00329 whole entry)
Briefly: Inhibition of recombinant human PI3Kdelta at 0.1 uM using PIP2 as substrate after 35 to 40 mins by HTRF assay relative to control.

Sequence of Phosphatidylinositol 4,5-bisphosphate 3-kinase catalytic subunit beta isoform (P42338 whole entry, canonical isoform): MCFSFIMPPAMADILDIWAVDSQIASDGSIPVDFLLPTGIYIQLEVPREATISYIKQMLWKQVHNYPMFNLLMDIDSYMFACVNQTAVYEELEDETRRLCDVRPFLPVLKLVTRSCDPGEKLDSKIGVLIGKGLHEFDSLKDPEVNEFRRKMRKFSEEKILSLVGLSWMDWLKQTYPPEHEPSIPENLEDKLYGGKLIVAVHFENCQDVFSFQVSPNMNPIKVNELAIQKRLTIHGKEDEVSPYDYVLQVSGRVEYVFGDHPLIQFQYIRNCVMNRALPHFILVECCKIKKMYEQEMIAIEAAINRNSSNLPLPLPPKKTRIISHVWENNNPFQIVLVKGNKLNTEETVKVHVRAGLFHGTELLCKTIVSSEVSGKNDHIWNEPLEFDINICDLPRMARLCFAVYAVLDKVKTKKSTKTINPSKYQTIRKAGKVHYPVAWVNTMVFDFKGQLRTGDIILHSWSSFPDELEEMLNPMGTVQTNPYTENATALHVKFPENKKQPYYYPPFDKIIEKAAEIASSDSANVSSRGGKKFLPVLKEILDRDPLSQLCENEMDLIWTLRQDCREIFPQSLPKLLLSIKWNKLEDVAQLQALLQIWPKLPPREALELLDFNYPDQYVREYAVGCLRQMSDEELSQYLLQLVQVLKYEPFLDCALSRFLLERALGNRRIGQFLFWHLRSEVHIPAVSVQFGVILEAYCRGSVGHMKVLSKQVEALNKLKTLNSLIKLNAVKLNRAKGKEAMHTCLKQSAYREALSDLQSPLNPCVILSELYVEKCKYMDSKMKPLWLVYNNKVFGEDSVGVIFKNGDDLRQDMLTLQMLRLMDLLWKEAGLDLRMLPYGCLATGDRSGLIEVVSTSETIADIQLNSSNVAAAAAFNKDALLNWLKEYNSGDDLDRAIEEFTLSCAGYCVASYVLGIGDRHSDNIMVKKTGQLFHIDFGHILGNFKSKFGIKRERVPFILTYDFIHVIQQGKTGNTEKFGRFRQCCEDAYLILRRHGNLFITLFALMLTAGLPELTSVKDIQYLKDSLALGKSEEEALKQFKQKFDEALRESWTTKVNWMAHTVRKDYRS
Sequence of Phosphatidylinositol 4,5-bisphosphate 3-kinase catalytic subunit alpha isoform (P42336 whole entry, canonical isoform): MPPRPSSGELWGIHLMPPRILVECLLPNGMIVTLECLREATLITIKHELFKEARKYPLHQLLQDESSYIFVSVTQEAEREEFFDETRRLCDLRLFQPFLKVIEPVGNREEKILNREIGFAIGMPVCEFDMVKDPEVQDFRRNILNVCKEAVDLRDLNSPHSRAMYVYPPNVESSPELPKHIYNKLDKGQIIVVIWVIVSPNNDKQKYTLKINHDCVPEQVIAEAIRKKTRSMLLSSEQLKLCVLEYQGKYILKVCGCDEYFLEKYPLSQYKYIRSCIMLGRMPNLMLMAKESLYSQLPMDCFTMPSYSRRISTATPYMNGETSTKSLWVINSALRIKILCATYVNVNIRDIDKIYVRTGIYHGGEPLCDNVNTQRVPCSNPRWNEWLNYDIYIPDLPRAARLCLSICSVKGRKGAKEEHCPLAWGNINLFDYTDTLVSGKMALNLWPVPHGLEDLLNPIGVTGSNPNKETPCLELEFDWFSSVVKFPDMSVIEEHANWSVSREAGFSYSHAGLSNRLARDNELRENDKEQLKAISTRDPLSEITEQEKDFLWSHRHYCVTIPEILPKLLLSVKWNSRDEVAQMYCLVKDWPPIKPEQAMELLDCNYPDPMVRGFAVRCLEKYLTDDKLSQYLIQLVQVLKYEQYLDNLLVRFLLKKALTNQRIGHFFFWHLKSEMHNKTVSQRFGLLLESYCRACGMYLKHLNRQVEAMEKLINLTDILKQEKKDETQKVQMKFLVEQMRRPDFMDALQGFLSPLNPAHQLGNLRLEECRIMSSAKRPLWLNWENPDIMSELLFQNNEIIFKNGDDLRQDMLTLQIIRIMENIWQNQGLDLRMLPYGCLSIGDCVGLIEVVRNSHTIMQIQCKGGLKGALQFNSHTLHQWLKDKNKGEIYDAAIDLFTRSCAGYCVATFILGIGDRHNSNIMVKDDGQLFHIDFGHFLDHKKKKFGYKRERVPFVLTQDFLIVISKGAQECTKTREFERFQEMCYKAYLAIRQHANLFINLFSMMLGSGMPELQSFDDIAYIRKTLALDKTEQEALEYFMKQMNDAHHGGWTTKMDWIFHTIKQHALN

The IC50 is the point on the concentration scale where inhibition reaches its midpoint. As to `COCC(=O)N1CCC(Nc2cc(-c3ncnc4c3CN(c3cnc(OC)c(C)c3)CC4)ccn2)CC1`, the IC50 in [1] is 9800 nM; in [2], 7.9 nM; in series [4] it was above 10000 nM; in [5] it was 9.2 nM; in [6] it was above 10000 nM. For the same molecule, in series [3], the CLint scaled at 0.2 µM is 580 mL/min/kg.

As to `COc1ncc(N2CCc3ncnc(-c4ccnc(NCc5ccccc5)c4)c3C2)cc1C`, in [5], the IC50 is 87 nM.

As for `COc1ncc(N2CCc3ncnc(-c4ccc(NC5CCOCC5)nc4)c3C2)cc1C`, the IC50 in series [5] was determined as 150 nM.

`COc1ncc(N2CCc3ncnc(-c4ccnc(OC5CCN(C)CC5)c4)c3C2)cc1C`: the IC50 in [5] is 45 nM.

Take `COc1ncc(N2CCc3ncnc(-c4ccnc(N[C@H]5CC[C@H](O)CC5)c4)c3C2)cc1C`: the IC50 in series [1] was found to be 7300 nM; in series [2], 24 nM; in series [5], 27 nM.

Consider `COc1ncc(N2CCc3ncnc(-c4ccnc(NC5CCOCC5)c4)c3C2)cc1C`, for which the IC50 is 5800 nM in series [1]; 7.1 nM in series [2]; 5400 nM in series [4]; 11 nM in series [5]; above 10000 nM in [6].

Turning to `COc1ncc(N2CCc3ncnc(Nc4cccc(C(=O)NC5CCOCC5)c4)c3C2)cc1C`, in [5], the IC50 was found to be 49 nM.

In the case of `CCOC(=O)c1cccc(Nc2ncnc3c2CN(c2cnc(OC)c(C)c2)CC3)c1`, the IC50 in series [5] amounted to 120 nM.

For the molecule `COc1ncc(N2CCc3ncnc(Nc4cccc(C(=O)N5CCOCC5)c4)c3C2)cc1C`, the IC50 in [5] was determined as 47 nM.

As to `COc1ncc(N2CCc3ncnc(Nc4cccc(C)c4)c3C2)cc1C`, the IC50 in series [5] turned out to be 220 nM.

As to `COCCNc1cc(-c2ncnc3c2CN(c2cnc(OC)c(C)c2)CC3)ccn1`, in series [5], the IC50 stood at 39 nM.

`COc1ncc(N2CCc3ncnc(-c4cnn(C5CCOCC5)c4)c3C2)cc1C`: the figures for the IC50 in series [1] and in series [5] were 2600 nM and 180 nM, respectively.

Regarding `COc1ncc(N2CCc3ncnc(-c4ccnc(NC5CCN(S(C)(=O)=O)CC5)c4)c3C2)cc1C`, the half-maximal inhibitory concentration (IC50) stood at 1400 nM in [1], 12 nM in [2] and 9.6 nM in [5]. Also, in series [3], the CLint scaled at 0.2 µM was above 1000 mL/min/kg.

For orientation: half-life means the time in which the quantity being followed falls by half. For the molecule `COc1ncc(N2CCc3ncnc(O[C@H]4CCN(C(=O)C5CCOCC5)C4)c3C2)cc1C`, the IC50 in [2] was 24 nM; in series [7], 153 nM. Further, the half-life in [8] was 40.2 min.

As for `COc1ncc(N2CCc3ncnc(-c4cnn(CC5CCOCC5)c4)c3C2)cc1C`, the IC50 in series [1] came to 4900 nM; in series [5] it was 110 nM.

Broadly, the inhibition is the percentage by which the read-out fell short of the control. Regarding `COc1ncc(N2CCc3ncnc(Nc4ccccc4)c3C2)cc1C`, in [9], the inhibition is 14%.

In the case of `COc1ncc(N2CCc3ncnc(-c4ccnc(NC5CCNCC5)c4)c3C2)cc1C`, the IC50 in [1] is above 10000 nM; in [2], 24 nM; in [4], above 10000 nM; in series [5], 25 nM; in series [6], above 10000 nM.

`COc1ncc(N2CCc3ncnc(-c4ccc(NCC5CCOCC5)nc4)c3C2)cc1C`: the IC50 in series [1] was 6100 nM; in series [5], 42 nM.

Consider `CCN1CCC(Nc2cc(-c3ncnc4c3CN(c3cnc(OC)c(C)c3)CC4)ccn2)CC1`, for which the IC50 was 4600 nM in series [1]; 4.8 nM in series [2]; above 10000 nM in [4]; 8.5 nM in series [5]; above 10000 nM in series [6]. Besides, in series [3], the CLint scaled at 0.2 µM came out at 160 mL/min/kg.

For the molecule `COc1ncc(N2CCc3ncnc(-c4ccnc(NCC5CCOCC5)c4)c3C2)cc1C`, the IC50 stood at 7500 nM in [1], 17 nM in [2], 8900 nM in [4] and 28 nM in [5].
